Peptide text beside a SMILES is read from it.
Assays:
[1] = molecular target: T1, BpsA (Streptomyces lavendulae, UniProt Q1MWN4); test: BpsA-mediated synthesis of indigoidine-related pigments from glutamine analogues; assay type: biochemical; details: 4 mM substrate, 1.66 μM BpsA, 25° C., 72 hours
Experimental: For these experiments, BpsA activation was carried out as noted in Example 1. Pre-activated BpsA was incubated at 25° C. for 72 hours in reaction buffer amended with 4 mM of either L-glutamine, L-glycine-L-glutamine (glycyl glutamine), L-alanine-L-glutamine (alanyl glutamine), N-trifluoracetyl-L-glutamine, or no substrate as a control. Pre-activated and buffered BpsA at a final concentration of 1.66 μM was added to a reaction buffer containing 4 mM of each L-glutamine derivative in a final reaction volume of 1000 μL. This was then incubated al 25° C. for 72 hours. Each reaction tube was centrifuged and the supernatant removed. The indigoidine derivatives were then resuspended in 100 μL of 99.9% DMSO to solubilise the precipitated pigment.
The structures of each substrate and the predicted structure of the cyclised indigoidine-like product potentially produced in each reaction are depicted in FIGS. […]. […] The relative absorbance levels of each reaction at the end of the 72 hour incubation period are illustrated in FIG. 8E.

[2] = molecular target: T1, BpsA; test: Activation of apo-BpsA to holo-BpsA by PPTase, read out as indigoidine synthesis (A590); assay type: biochemical; details: in vitro, purified His6-tagged PPTase
Experimental: Apo-BpsA was converted to holo-BpsA in vitro, post-purification, as follows. Purified BpsA and Sfp were obtained by standard Ni/NTA chromatography following their expression as His6-tagged recombinant polypeptides. The bpsA and sfp genes were cloned into and expressed from plasmid pET28a+ in E. coli BL21 (DE3) cells, as described for BpsA and other PPTases by Owell et al (2011), with the modification that BpsA expression and purification was performed in an entD gene-deleted strain of E.coli BL21(DE3). This was done to avoid any activation of BpsA by endogenous EntD PPTase prior to BpsA purification.
Reagents were added to a 15 ml tube. This was vortexed for two seconds and transferred to a 30° C. shaking incubator (200 rpm) for 20 minutes to enable 4′-PP attachment to occur. A negative control was set up in the same manner, omitting Sfp and adding 88.16 μL of ddH2O instead of 84.48 μL of ddH2O.
Indigoidine synthesis reactions were performed in triplicate in a 96 well plate to assess whether activated BpsA was generated. For these reactions, 50 μL of 50 mM Tris-HCl, 10 mM MgCl2 in ddH2O was added to each of six wells. […] The 96 well plate was shaken at 1000 rpm and the A590 values (absorbance at 590 nm) were recorded for each well every twenty seconds for 60 minutes. […]

T1 sequence (Q1MWN4 whole entry): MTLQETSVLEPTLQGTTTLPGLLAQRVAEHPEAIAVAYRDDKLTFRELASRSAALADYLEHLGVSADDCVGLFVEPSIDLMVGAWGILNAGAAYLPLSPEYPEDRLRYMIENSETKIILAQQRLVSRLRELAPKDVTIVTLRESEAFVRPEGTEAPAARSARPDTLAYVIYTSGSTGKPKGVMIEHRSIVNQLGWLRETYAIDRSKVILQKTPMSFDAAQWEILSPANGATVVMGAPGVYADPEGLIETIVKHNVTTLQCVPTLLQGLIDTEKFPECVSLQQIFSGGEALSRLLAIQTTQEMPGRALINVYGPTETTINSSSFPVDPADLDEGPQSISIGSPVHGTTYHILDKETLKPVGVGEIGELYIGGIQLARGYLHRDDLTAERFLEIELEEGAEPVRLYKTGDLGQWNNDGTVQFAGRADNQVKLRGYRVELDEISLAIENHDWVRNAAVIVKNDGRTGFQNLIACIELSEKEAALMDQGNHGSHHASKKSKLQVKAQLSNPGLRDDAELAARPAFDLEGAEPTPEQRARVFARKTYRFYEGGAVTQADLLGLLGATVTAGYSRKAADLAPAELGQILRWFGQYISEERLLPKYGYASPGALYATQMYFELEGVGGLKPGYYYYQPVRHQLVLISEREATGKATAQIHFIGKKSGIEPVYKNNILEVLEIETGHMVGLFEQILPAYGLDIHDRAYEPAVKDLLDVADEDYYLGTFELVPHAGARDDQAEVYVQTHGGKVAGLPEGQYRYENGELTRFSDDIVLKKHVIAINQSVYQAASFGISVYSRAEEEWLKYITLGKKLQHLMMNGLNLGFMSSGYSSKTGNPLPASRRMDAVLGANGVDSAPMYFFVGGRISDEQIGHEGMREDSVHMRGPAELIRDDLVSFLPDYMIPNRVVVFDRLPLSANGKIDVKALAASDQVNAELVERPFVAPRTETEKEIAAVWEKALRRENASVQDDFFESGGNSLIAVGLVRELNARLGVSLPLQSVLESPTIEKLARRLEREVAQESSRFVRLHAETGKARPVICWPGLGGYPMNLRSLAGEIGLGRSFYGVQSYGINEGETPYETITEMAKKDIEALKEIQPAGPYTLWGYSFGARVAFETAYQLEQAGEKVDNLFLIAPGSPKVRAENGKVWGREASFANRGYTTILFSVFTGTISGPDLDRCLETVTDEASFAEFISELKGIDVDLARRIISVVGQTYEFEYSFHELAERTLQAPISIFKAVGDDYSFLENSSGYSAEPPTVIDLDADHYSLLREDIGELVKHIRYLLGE

Molecule | Pigment formation by pre-activated BpsA from the substrate [1] | Ability of PPTase to activate BpsA [2]
NCC(=O)N[C@@H](CCC(N)=O)C(=O)O [glycyl-glutamine, L-glycine-L-glutamine] (H-Gly-Gln-OH) | used to produce indigoidine-like pigments | –
NC(=O)CC[C@H](NC(=O)C(F)(F)F)C(=O)O [N-trifluoroacetyl-L-glutamine] | used to produce indigoidine-like pigments | –
C[C@H](N)C(=O)N[C@@H](CCC(N)=O)C(=O)O [alanyl glutamine, L-alanine-L-glutamine] (H-Ala-Gln-OH) | used to produce indigoidine-like pigments | –
Sfp: PPTase from Bacillus subtilis (protein, left off: small tags and cut ends, PPTase from Bacillus subtilis) MKIYGIYMDRPLSQEENERFMSFISPEKREKCRRFYHKEDAHRTLLGDVLVRSVISRQYQLDKSDIRFSTQEYGKPCIPDLPDAHFNISHSGRWVICAFDSQPIGIDIEKTKPISLEIAKRFFSKTEYSDLLAKDKDEQTDYFYHLWSMKESFIKQEGKGLSLPLDSFSVRLHQDGQVSIELPDSHSPCYIKTYEVDPGYKMAVCAAHPDFPEDITMVSYEELL | – | effective means of pre-activating BpsA
PptT: PPTase from Mycobacterium tuberculosis (protein, left off: small tags and cut ends, PPTase from Mycobacterium tuberculosis) MTVGTLVASVLPATVFEDLAYAELYSDPPGLTPLPEEAPLIARSVAKRRNEFITVRHCARIALDQLGVPPAPILKGDKGEPCWPDGMVGSLTHCAGYRGAVVGRRDAVRSVGIDAEPHDVLPNGVLDAISLPAERADMPRTMPAALHWDRILFCAKEATYKAWFPLTKRWLGFEDAHITFETDSTGWTGRFVSRILIDGSTLSGPPLTTLRGRWSVERGLVLTAIVL | – | similarly able to activate BpsA

— patent publication US10725049B2, “Methods of detecting and measuring glutamine and analogues thereof, and methods related thereto” (Victoria Link Limited, priority 2013, dated 2020)
